According to patent US8791143B2, “Anthranilic diamide derivatives having cyclic side-chains” (priority 2010, dated 2014):
Where two headings read alike, the source gives them in different places.

What was measured:
[1] = system: larvae of the mustard beetle (Phaedon cochleariae); test: Phaedon test (PHAECO spray treatment); conditions: Phaedon cochleariae, 168 h, read-out: activity in % (beetle larvae killed)
[2] = log P by HPLC on reversed-phase columns (EEC Directive 79/831 Annex V.A8); format: physicochemical
[3] = system: caterpillars of the armyworm (Spodoptera frugiperda); test: Spodoptera frugiperda test (SPODFR spray treatment); format: in vivo; conditions: Spodoptera frugiperda, 168 h, read-out: activity in % (caterpillars killed)
[4] = reversed-phase C18 HPLC column, pH 2.7, HPLC reversed-phase C18, acidic range pH 2.7 (HCOOH), only or first value of the cell, read-out: log P
[5] = application rate 100 g/ha, after 7 days

Compound | pest or weed control at 100 g/ha [1] [%] | chromatographic logP [2, 4] | pest or weed control at 100 g/ha [3, 5] [%] | chromatographic logP ([2]; pH 2.7, log P) | pest or weed control at 100 g/ha [3] [%] | log P (second value after the slash) ([2]; pH 2.7)
Cc1cc(Cl)cc(C(=O)NCc2cccc(OC(F)F)c2)c1NC(=O)c1cc(Cn2nnc(C(F)(F)F)n2)nn1-c1ncccc1Cl [Example 159] | 100 | 3.95 | 100 |  |  | 
Cc1cc(C#N)cc(C(=O)NCc2cccc(OC(F)F)c2)c1NC(=O)c1cc(Cn2nnc(C(F)F)n2)nn1-c1ncccc1Cl [Example 178] | 100 | 3.08 | 83 |  |  | 
Cc1cc(F)cc(C(=O)NCc2ccc(OC(F)(F)F)cc2)c1NC(=O)c1cc(Cn2nnc(C(F)(F)F)n2)nn1-c1ncccc1Cl [Example 155] | 100 | 3.92 | 100 |  |  | 
CCc1cccc(CNC(=O)c2cc(Cl)cc(C)c2NC(=O)c2cc(Cn3nnc(C(F)(F)F)n3)nn2-c2ncccc2Cl)n1 [Example 228] | 100 |  |  | 2.22 | 100 | 
Cc1cccc(CNC(=O)c2cc(Cl)cc(C)c2NC(=O)c2cc(Cn3nnc(C(F)(F)F)n3)nn2-c2ncccc2Cl)c1 [Example 89] | 100 |  |  | 4.08 | 100 | 
Cc1cc(C#N)cc(C(=O)NCc2cccc(OC(F)F)c2)c1NC(=O)c1cc(Cn2nnc(C(F)(F)F)n2)nn1-c1ncccc1Cl [Example 180] | 100 | 3.54 | 100 |  |  | 
Cc1cc(Cl)cc(C(=O)NCc2cccc(OC(F)(F)F)c2)c1NC(=O)c1cc(Cn2nnc(C(F)(F)F)n2)nn1-c1ncccc1Cl [Example 104] | 100 | 4.36 | 100 |  |  | 
Cc1cc(Cl)cc(C(=O)NC(C)c2ccccc2C(F)(F)F)c1NC(=O)c1cc(Cn2nnc(C(F)(F)F)n2)nn1-c1ncccc1Cl (stereo not shown) [Example 123] | 100 | 4.35 | 100 |  |  | 
Cc1cc(C#N)cc(C(=O)NCc2ccccc2)c1NC(=O)c1cc(Cn2nc(C(F)(F)F)c(C(F)(F)F)n2)nn1-c1ncccc1Cl [Example 136] | 100 | 4.15 | 100 |  |  | 
Cc1cc(Cl)cc(C(=O)NCc2ccccc2OC(F)F)c1NC(=O)c1cc(Cn2nnc(C(F)F)n2)nn1-c1ncccc1Cl [Example 175] | 100 | 3.47 | 100 |  |  | 
O=C(NCc1cccc(Cl)c1)c1cc(Cl)cc(F)c1NC(=O)c1cc(Cn2nnc(C(F)(F)F)n2)nn1-c1ncccc1Cl [Example 207] | 100 | 3.89 | 100 |  |  | 
Cc1cc(I)cc(C(=O)NCc2ccccc2OC(F)F)c1NC(=O)c1cc(Cn2nnc(C(F)(F)C(F)(F)F)n2)nn1-c1ncccc1Cl [Example 157] | 100 | 4.45 | 100 |  |  | 
Cc1cc(Cl)cc(C(=O)NCc2ccc(Cl)c(Cl)c2)c1NC(=O)c1cc(Cn2nnc(C(F)(F)F)n2)nn1-c1ncccc1Cl [Example 93] | 100 |  |  | 4.37 | 100 | 
Cc1cc(C#N)cc(C(=O)NCc2ccc(Cl)nc2)c1NC(=O)c1cc(Cn2nnc(C(F)(F)F)n2)nn1-c1ncccc1Cl [Example 66] | 100 |  |  | 3.11 | 100 | 
Cc1cc(C#N)cc(C(=O)NCc2cccc(OC(F)(F)F)c2)c1NC(=O)c1cc(Cn2nnc(C(F)F)n2)nn1-c1ncccc1Cl [Example 163] | 100 | 3.42 | 100 |  |  | 
Cc1cc(C#N)cc(C(=O)NCc2ccc(OC(F)F)cc2)c1NC(=O)c1cc(Cn2nnc(C(F)(F)F)n2)nn1-c1ccccc1Cl [Example 191] | 100 | 3.81 | 100 |  |  | 
Cc1cc(I)cc(C(=O)NCc2cccc(OC(F)(F)F)c2)c1NC(=O)c1cc(Cn2nnc(C(F)(F)F)n2)nn1-c1ncccc1Cl [Example 156] | 100 | 4.47 | 100 |  |  | 
Cc1c(F)ccc(C(=O)NCc2cccc(OC(F)(F)F)c2)c1NC(=O)c1cc(Cn2nnc(C(F)(F)F)n2)nn1-c1ncccc1Cl [Example 186] | 100 | 4.07 | 100 |  |  | 
Cc1cc(Cl)cc(C(=O)NC2CCSCC2)c1NC(=O)c1cc(Cn2nnc(C(F)(F)F)n2)nn1-c1ncccc1Cl [Example 56] | 100 |  |  | 3.58 | 100 | 
Cc1cc(Cl)cc(C(=O)NCc2cc(F)cc(F)c2F)c1NC(=O)c1cc(Cn2nnc(C(F)(F)F)n2)nn1-c1ncccc1Cl [Example 109] | 100 | 3.98 | 100 |  |  | 

Compound | pest or weed control at 100 g/ha [1] [%] | chromatographic logP [2, 4] | pest or weed control at 100 g/ha [3, 5] [%] | chromatographic logP ([2]; pH 2.7, log P) | pest or weed control at 100 g/ha [3] [%] | log P (second value after the slash) ([2]; pH 2.7)
Cc1cc(I)cc(C(=O)NCc2ccc(OC(F)(F)F)cc2)c1NC(=O)c1cc(Cn2nnc(C(F)(F)C(F)(F)F)n2)nn1-c1ncccc1Cl [Example 148] | 100 | 4.85 | 100 |  |  | 
Cc1cc(C#N)cc(C(=O)NCc2cccc(S(F)(F)(F)(F)F)c2)c1NC(=O)c1cc(Cn2nnnc2C(F)(F)F)nn1-c1ncccc1Cl [Example 68] | 100 | 3.69 | 100 |  |  | 
Cc1c(F)ccc(C(=O)NCc2ccc(OC(F)(F)F)cc2)c1NC(=O)c1cc(Cn2nnc(C(F)(F)F)n2)nn1-c1ncccc1Cl [Example 187] | 100 | 4.05 | 100 |  |  | 
Cc1cc(Cl)cc(C(=O)NC(C)c2cc(Cl)ccc2Cl)c1NC(=O)c1cc(Cn2nnc(C(F)(F)F)n2)nn1-c1ncccc1Cl (stereo not shown) [Example 144] | 100 | 4.58 | 100 |  |  | 
Cc1cc(Cl)cc(C(=O)NCc2ccc(F)cc2)c1NC(=O)c1cc(Cn2nnc(C(F)(F)F)n2)nn1-c1ncccc1Cl [Example 99] | 100 |  |  | 3.81 | 100 | 
Cc1cc(Cl)cc(C(=O)NCc2cc(Cl)ccn2)c1NC(=O)c1cc(Cn2nnc(C(F)(F)F)n2)nn1-c1ncccc1Cl [Example 232] | 100 |  |  | 3.45 | 100 | 
Cc1cc(I)cc(C(=O)NCc2ccccc2OC(F)(F)F)c1NC(=O)c1cc(Cn2nnc(C(F)(F)C(F)(F)F)n2)nn1-c1ncccc1Cl [Example 146] | 100 | 4.84 | 100 |  |  | 
Cc1cc(Cl)cc(C(=O)NCc2ccccc2)c1NC(=O)c1cc(Cn2nc(C(F)(F)F)c(C(F)(F)F)n2)nn1-c1ncccc1Cl [Example 134] | 100 | 4.52 | 100 |  |  | 
Cc1cc(C#N)cc(C(=O)NCc2cccc(S(F)(F)(F)(F)F)c2)c1NC(=O)c1cc(Cn2nnc(C(F)(F)F)n2)nn1-c1ncccc1Cl [Example 63] | 100 | 4.02 | 100 |  |  | 
Cc1cc(Cl)cc(C(=O)NCc2ccc(C(F)(F)F)cn2)c1NC(=O)c1cc(Cn2nnc(C(F)(F)F)n2)nn1-c1ncccc1Cl [Example 226] | 100 | 3.7 | 100 |  |  | 
O=C(NCc1ccccc1Cl)c1cc(Br)cc(Cl)c1NC(=O)c1cc(Cn2nnc(C(F)(F)F)n2)nn1-c1ncccc1Cl [Example 203] | 100 |  |  | 4.07 | 100 | 
Cc1cc(Cl)cc(C(=O)NC2=NCCS2)c1NC(=O)c1cc(Cn2nnc(C(F)(F)C(F)(F)F)n2)nn1-c1ncccc1Cl [Example 47] | 100 |  |  | 3.9 | 100 | 3.58
Cc1cc(C#N)cc(C(=O)NCc2ccc(OC(F)F)cc2)c1NC(=O)c1cc(Cn2nnc(C(F)(F)F)n2)nn1-c1ncccc1Cl [Example 168] | 100 | 3.49 | 100 |  |  | 
Cc1cc(Cl)cc(C(=O)NCc2ccc(Cl)cc2Cl)c1NC(=O)c1cc(Cn2nnc(C(F)(F)F)n2)nn1-c1ncccc1Cl [Example 92] | 100 |  |  | 4.41 | 100 | 
Cc1cc(Cl)cc(C(=O)NCc2cc(Cl)cc(Cl)c2)c1NC(=O)c1cc(Cn2nnc(C(F)(F)F)n2)nn1-c1ncccc1Cl [Example 94] | 100 |  |  | 4.49 | 100 | 
Cc1cc(C#N)cc(C(=O)NCc2ccc(OC(F)(F)F)cc2)c1NC(=O)c1cc(Cn2nnc(C(F)(F)F)n2)nn1-c1ncccc1Cl [Example 167] | 100 | 3.9 | 100 |  |  | 
Cc1cc(Cl)cc(C(=O)NC(C)c2cccc(F)c2)c1NC(=O)c1cc(Cn2nnc(C(F)(F)F)n2)nn1-c1ncccc1Cl (stereo not shown) [Example 143] | 100 |  |  | 4 | 100 | 
O=C(NC1COC1)c1cc(Cl)cc(Cl)c1NC(=O)c1cc(Cn2nnc(C(F)(F)F)n2)nn1-c1ncccc1Cl [Example 5] | 100 |  |  | 2.79 | 100 | 
Cc1cc(Cl)cc(C(=O)N[C@H](C)c2ccc([N+](=O)[O-])cc2)c1NC(=O)c1cc(Cn2nnc(C(F)(F)F)n2)nn1-c1ncccc1Cl [Example 128] | 100 | 3.85 | 100 |  |  | 
